Results as given in publication PMC6874179, “Development of Macrocycle Kinase Inhibitors for ALK2 Using Fibrodysplasia Ossificans Progressiva‐Derived Endothelial Cells” (JBMR Plus, 2019).

Columns and labels:
Test in all cases: Proqinase Kinase profiling
Assay type in all cases: biochemical
Conditions in all cases: read-out: % inhibition at 100nM
CDK5_p35 = target: T1, CDK5_p35 (Homo sapiens, UniProt Q00535)
T1 construct: purchased DiscoverX

MARK1 = target: T2, MARK1 (Homo sapiens, UniProt Q9P0L2)
T2 construct: purchased DiscoverX

CAMK4 = target: T3, CAMK4 (Homo sapiens, UniProt Q16566)
T3 construct: purchased DiscoverX

GRK7 = target: T4, GRK7 (Homo sapiens, UniProt Q8WTQ7)
T4 construct: purchased DiscoverX

CDK7_cyclinH_MAT1 = target: T5, CDK7_cyclinH_MAT1 (Homo sapiens, UniProt P50613)
T5 construct: purchased DiscoverX

CDK3_cyclinE = target: T6, CDK3_cyclinE (Homo sapiens, UniProt Q00526)
T6 construct: purchased DiscoverX

ADRBK2 = target: T7, ADRBK2 (Homo sapiens, UniProt P35626)
T7 construct: purchased DiscoverX
T7 sequence (P35626 whole entry): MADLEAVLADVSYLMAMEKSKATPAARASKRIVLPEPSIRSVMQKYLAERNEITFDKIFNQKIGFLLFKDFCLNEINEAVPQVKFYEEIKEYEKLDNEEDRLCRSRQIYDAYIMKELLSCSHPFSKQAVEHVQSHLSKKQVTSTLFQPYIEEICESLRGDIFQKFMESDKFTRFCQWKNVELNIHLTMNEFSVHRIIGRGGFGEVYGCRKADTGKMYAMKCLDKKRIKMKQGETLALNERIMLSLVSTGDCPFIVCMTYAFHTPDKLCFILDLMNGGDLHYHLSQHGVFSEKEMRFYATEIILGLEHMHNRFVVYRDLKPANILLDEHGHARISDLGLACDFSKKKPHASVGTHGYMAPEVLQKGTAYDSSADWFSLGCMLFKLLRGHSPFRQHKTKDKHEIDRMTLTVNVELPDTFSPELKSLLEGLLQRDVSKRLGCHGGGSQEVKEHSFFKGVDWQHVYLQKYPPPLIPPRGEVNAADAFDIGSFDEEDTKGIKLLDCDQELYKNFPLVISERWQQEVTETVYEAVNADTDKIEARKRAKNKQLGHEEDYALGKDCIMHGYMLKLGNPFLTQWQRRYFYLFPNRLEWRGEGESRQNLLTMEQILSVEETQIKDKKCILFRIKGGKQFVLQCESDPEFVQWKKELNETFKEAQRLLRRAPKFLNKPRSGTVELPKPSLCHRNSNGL

CDK4_cyclinD3 = target: T8, CDK4_cyclinD3 (Homo sapiens, UniProt P11802)
T8 construct: purchased DiscoverX

MET_F1200I = target: T9, MET_F1200I (Homo sapiens, UniProt P08581, F1200I)
T9 construct: purchased DiscoverX

EGFR_T790M = target: T10, EGFR_T790M (Homo sapiens, UniProt P00533, T790M)
T10 construct: purchased DiscoverX
T10 sequence (P00533 25-1210 T790M): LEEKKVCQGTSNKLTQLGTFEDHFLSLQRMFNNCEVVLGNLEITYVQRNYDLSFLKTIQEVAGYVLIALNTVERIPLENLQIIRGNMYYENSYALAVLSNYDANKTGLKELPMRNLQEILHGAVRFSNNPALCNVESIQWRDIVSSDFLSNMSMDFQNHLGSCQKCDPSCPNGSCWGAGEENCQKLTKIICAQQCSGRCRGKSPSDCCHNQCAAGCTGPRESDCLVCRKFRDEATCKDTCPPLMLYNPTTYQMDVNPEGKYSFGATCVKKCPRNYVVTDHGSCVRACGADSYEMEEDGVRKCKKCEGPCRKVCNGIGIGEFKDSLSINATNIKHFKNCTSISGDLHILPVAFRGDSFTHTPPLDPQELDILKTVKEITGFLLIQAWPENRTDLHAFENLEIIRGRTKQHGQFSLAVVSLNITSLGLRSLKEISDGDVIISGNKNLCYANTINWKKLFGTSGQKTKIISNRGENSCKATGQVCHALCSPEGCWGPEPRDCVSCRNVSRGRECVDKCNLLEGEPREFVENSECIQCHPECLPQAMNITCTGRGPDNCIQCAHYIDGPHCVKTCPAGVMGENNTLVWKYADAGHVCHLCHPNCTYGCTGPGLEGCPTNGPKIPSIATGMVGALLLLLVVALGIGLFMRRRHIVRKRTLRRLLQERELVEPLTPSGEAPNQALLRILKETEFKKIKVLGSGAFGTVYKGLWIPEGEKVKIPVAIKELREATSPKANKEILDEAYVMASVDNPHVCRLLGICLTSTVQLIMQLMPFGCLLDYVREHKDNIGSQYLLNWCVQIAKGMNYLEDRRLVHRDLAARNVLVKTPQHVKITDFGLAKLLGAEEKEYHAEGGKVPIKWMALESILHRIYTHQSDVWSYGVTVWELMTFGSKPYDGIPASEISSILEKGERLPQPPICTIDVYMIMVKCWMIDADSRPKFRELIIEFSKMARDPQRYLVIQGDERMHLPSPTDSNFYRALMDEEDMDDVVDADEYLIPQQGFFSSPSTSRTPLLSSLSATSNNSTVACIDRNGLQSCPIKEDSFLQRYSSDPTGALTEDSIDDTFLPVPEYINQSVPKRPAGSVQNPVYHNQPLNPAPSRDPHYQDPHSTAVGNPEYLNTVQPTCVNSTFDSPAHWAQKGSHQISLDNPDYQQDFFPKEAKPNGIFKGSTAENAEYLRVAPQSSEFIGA

LRRK2_I2020T = target: T11, LRRK2_I2020T (Homo sapiens, UniProt Q5S007, I2020T)
T11 construct: purchased DiscoverX

PRKAA1 = target: T12, PRKAA1 (Homo sapiens, UniProt Q13131)
T12 construct: purchased DiscoverX

MAP4K4 = target: T13, MAP4K4 (Homo sapiens, UniProt O95819)
T13 construct: purchased DiscoverX

SGK2 = target: T14, SGK2 (Homo sapiens, UniProt Q9HBY8)
T14 construct: purchased DiscoverX

CDK9_cyclinK = target: T15, CDK9_cyclinK (Homo sapiens, UniProt P50750)
T15 construct: purchased DiscoverX
T15 sequence (P50750 whole entry): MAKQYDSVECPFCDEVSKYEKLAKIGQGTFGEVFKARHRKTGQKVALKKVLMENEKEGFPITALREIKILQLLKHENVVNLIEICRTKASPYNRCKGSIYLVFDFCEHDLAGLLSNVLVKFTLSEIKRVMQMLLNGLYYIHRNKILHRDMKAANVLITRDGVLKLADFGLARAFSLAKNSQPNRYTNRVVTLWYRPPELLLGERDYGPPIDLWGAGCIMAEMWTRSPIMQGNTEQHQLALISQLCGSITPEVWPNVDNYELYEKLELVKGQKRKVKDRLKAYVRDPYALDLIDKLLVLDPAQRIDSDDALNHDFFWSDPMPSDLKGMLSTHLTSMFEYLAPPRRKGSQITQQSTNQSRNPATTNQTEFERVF
T15 sequence (O75909 whole entry partner): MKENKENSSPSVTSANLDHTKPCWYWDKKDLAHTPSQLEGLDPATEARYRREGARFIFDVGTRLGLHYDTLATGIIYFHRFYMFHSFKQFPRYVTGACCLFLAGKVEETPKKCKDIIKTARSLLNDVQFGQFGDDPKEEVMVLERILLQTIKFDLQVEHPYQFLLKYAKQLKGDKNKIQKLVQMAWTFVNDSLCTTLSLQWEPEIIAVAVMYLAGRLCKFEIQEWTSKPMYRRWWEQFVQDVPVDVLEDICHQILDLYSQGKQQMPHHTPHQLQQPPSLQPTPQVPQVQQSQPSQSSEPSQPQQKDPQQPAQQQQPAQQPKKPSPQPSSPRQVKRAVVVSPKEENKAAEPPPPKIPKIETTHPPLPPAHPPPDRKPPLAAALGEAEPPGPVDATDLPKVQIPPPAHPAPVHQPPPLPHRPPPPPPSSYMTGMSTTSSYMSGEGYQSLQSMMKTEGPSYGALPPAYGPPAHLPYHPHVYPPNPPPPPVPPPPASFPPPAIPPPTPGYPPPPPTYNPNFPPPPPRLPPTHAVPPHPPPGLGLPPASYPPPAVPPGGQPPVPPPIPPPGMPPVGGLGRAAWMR

PLK3 = target: T16, PLK3 (Homo sapiens, UniProt Q9H4B4)
T16 construct: purchased DiscoverX

NEK1 = target: T17, NEK1 (Homo sapiens, UniProt Q96PY6)
T17 construct: purchased DiscoverX

CDK1_cyclinE1 = target: T18, CDK1_cyclinE1 (Homo sapiens, UniProt P06493)
T18 construct: purchased DiscoverX

CAMK1D = target: T19, CAMK1D (Homo sapiens, UniProt Q8IU85)
T19 construct: purchased DiscoverX

ITK = target: T20, ITK (Homo sapiens, UniProt Q08881)
T20 construct: purchased DiscoverX

HIPK3 = target: T21, HIPK3 (Homo sapiens, UniProt Q9H422)
T21 construct: purchased DiscoverX

HIPK2 = target: T22, HIPK2 (Homo sapiens, UniProt Q9H2X6)
T22 construct: purchased DiscoverX

AKT3 = target: T23, AKT3 (Homo sapiens, UniProt Q9Y243)
T23 construct: purchased DiscoverX
T23 sequence (Q9Y243 whole entry): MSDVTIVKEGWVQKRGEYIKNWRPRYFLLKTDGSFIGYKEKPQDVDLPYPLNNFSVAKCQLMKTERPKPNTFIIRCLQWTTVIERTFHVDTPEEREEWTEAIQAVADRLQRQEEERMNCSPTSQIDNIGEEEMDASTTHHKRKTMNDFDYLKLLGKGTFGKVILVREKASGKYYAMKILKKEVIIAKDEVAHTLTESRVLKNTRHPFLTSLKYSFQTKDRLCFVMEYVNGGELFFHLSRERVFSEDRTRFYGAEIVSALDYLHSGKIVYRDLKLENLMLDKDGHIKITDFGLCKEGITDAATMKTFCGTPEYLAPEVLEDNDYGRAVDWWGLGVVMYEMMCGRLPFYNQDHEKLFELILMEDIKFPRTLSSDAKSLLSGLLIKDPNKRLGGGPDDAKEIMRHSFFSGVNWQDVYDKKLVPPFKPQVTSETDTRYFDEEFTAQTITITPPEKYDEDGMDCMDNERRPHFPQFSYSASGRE

DAPK2 = target: T24, DAPK2 (Homo sapiens, UniProt Q9UIK4)
T24 construct: purchased DiscoverX

MKNK1 = target: T25, MKNK1 (Homo sapiens, UniProt Q9BUB5)
T25 construct: purchased DiscoverX

RET_Y791F = target: T26, RET_Y791F (Homo sapiens, UniProt P07949, Y791F)
T26 construct: purchased DiscoverX
T26 sequence (P07949 29-1114 Y791F): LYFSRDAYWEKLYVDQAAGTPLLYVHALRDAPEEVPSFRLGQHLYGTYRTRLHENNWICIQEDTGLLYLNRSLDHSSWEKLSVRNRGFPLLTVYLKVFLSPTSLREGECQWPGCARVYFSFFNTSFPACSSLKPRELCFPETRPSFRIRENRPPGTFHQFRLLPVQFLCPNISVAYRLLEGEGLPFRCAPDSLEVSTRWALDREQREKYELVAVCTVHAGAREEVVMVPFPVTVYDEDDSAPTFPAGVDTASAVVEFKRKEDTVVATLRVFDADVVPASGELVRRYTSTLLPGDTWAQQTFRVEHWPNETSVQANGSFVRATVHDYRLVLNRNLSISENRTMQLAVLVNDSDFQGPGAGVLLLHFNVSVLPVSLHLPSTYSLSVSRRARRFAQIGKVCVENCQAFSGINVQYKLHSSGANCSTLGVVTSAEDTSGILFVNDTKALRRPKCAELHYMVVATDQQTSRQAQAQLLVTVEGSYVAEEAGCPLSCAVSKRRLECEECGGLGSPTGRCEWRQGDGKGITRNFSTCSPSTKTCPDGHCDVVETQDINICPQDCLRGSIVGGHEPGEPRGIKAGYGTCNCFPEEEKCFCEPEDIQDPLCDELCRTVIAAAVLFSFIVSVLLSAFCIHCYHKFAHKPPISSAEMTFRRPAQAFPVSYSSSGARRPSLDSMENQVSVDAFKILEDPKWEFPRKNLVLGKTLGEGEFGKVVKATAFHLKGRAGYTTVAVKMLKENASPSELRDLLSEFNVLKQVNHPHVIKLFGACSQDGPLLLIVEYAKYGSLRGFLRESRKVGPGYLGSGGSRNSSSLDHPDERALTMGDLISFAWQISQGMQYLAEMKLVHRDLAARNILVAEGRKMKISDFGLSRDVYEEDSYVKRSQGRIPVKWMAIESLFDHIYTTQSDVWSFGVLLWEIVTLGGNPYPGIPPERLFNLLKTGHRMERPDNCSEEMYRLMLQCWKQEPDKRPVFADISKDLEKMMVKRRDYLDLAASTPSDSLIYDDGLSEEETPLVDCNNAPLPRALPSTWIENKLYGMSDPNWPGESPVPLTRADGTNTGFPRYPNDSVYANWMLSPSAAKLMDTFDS

MAPK9 = target: T27, MAPK9 (Homo sapiens, UniProt P45984)
T27 construct: purchased DiscoverX

MAPK12 = target: T28, MAPK12 (Homo sapiens, UniProt P53778)
T28 construct: purchased DiscoverX

MYLK = target: T29, MYLK (Homo sapiens, UniProt Q15746)
T29 construct: purchased DiscoverX

RET_S891A = target: T30, RET_S891A (Homo sapiens, UniProt P07949, S891A)
T30 construct: purchased DiscoverX
T30 sequence (P07949 29-1114 S891A): as the sequence (P07949 29-1114 Y791F) above, with F763Y, S863A counted along it

TGFbR1 = target: T31, TGFbR1 (Homo sapiens, UniProt P36897)
T31 construct: purchased DiscoverX
T31 sequence (P36897 34-503): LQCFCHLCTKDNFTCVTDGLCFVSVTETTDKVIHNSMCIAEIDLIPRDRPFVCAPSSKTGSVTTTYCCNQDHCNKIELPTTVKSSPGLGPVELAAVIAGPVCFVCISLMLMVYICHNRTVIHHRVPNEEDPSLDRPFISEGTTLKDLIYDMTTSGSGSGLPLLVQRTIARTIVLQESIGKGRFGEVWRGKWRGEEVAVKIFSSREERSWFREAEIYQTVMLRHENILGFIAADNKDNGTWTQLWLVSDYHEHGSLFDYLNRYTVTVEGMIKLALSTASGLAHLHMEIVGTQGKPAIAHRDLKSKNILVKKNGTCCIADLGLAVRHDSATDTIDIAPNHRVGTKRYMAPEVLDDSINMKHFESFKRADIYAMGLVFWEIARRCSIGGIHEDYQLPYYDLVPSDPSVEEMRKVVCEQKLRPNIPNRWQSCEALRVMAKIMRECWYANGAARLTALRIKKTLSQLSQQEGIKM

MATK = target: T32, MATK (Homo sapiens, UniProt P42679)
T32 construct: purchased DiscoverX

RPS6KA2 = target: T33, RPS6KA2 (Homo sapiens, UniProt Q15349)
T33 construct: purchased DiscoverX

EGFR_G719C = target: T34, EGFR_G719C (Homo sapiens, UniProt P00533, G719C)
T34 construct: purchased DiscoverX

GSG2 = target: T35, GSG2 (Homo sapiens, UniProt Q8TF76)
T35 construct: purchased DiscoverX

KIT_V559D_T670I = target: T36, KIT_V559D_T670I (Homo sapiens, UniProt P10721, T670I/V559D)
T36 construct: purchased DiscoverX

IKBKB = target: T37, IKBKB (Homo sapiens, UniProt O14920)
T37 construct: purchased DiscoverX

WNK1 = target: T38, WNK1 (Homo sapiens, UniProt Q9H4A3)
T38 construct: purchased DiscoverX

EIF2AK2 = target: T39, EIF2AK2 (Homo sapiens, UniProt P19525)
T39 construct: purchased DiscoverX

MYLK3 = target: T40, MYLK3 (Homo sapiens, UniProt Q32MK0)
T40 construct: purchased DiscoverX

BMX = target: T41, BMX (Homo sapiens, UniProt P51813)
T41 construct: purchased DiscoverX

GRK4 = target: T42, GRK4 (Homo sapiens, UniProt P32298)
T42 construct: purchased DiscoverX

BLK = target: T43, BLK (Homo sapiens, UniProt P51451)
T43 construct: purchased DiscoverX

In the case of `Clc1cc2cc(c1)-c1cnn3ccc(nc13)NCCOCCO2` [OD36], the inhibition at 0.1 µM (CDK5_p35) is reported as 9%, the inhibition at 0.1 µM (MARK1) is reported as 11% and the inhibition at 0.1 µM (CAMK4) is reported as -4%. The inhibition at 0.1 µM (GRK7) was 6%, the inhibition at 0.1 µM (CDK7_cyclinH_MAT1) was 0% and the inhibition at 0.1 µM (CDK3_cyclinE) was 11%. It also gave an inhibition at 0.1 µM (ADRBK2) of 0%, an inhibition at 0.1 µM (CDK4_cyclinD3) of -30% and an inhibition at 0.1 µM (MET_F1200I) of 4%. For the same molecule, the inhibition at 0.1 µM (EGFR_T790M) was -14%, the inhibition at 0.1 µM (LRRK2_I2020T) was 49% and the inhibition at 0.1 µM (PRKAA1) was 21%. It also gave an inhibition at 0.1 µM (MAP4K4) of 38%, an inhibition at 0.1 µM (SGK2) of 6% and an inhibition at 0.1 µM (CDK9_cyclinK) of 16%. For the same molecule, the inhibition at 0.1 µM (PLK3) was -4%, the inhibition at 0.1 µM (NEK1) was 14% and the inhibition at 0.1 µM (CDK1_cyclinE1) was 8%. It also gave an inhibition at 0.1 µM (CAMK1D) of 6%, an inhibition at 0.1 µM (ITK) of -6% and an inhibition at 0.1 µM (HIPK3) of 12%. For the same molecule, the inhibition at 0.1 µM (HIPK2) was 16%, the inhibition at 0.1 µM (AKT3) was -1% and the inhibition at 0.1 µM (DAPK2) was 17%. For the same molecule, the inhibition at 0.1 µM (MKNK1) was 23%, the inhibition at 0.1 µM (RET_Y791F) was 30% and the inhibition at 0.1 µM (MAPK9) was 12%. The inhibition at 0.1 µM (MAPK12) was 24%, the inhibition at 0.1 µM (MYLK) was 12% and the inhibition at 0.1 µM (RET_S891A) was 63%. For the same molecule, the inhibition at 0.1 µM (TGFbR1) was 5%, the inhibition at 0.1 µM (MATK) was 9% and the inhibition at 0.1 µM (RPS6KA2) was 7%. It also gave an inhibition at 0.1 µM (EGFR_G719C) of 19%, an inhibition at 0.1 µM (GSG2) of 50% and an inhibition at 0.1 µM (KIT_V559D_T670I) of 7%. It also gave an inhibition at 0.1 µM (IKBKB) of 1%, an inhibition at 0.1 µM (WNK1) of 18% and an inhibition at 0.1 µM (EIF2AK2) of 9%. The inhibition at 0.1 µM (MYLK3) was 15%, the inhibition at 0.1 µM (BMX) was 9% and the inhibition at 0.1 µM (GRK4) was 16%. The inhibition at 0.1 µM (BLK) was 35%.

With `Cc1cc2cc(c1)-c1cnn3ccc(nc13)NCCNC(=O)CCN(C)C2` [OD52] the inhibition at 0.1 µM (CDK5_p35) was -8%, the inhibition at 0.1 µM (MARK1) was -9% and the inhibition at 0.1 µM (CAMK4) was -23%. It also gave an inhibition at 0.1 µM (GRK7) of 12%, an inhibition at 0.1 µM (CDK7_cyclinH_MAT1) of -6% and an inhibition at 0.1 µM (CDK3_cyclinE) of 5%. For the same molecule, the inhibition at 0.1 µM (ADRBK2) was -3%, the inhibition at 0.1 µM (CDK4_cyclinD3) was -5% and the inhibition at 0.1 µM (MET_F1200I) was -4%. For the same molecule, the inhibition at 0.1 µM (EGFR_T790M) was -17%, the inhibition at 0.1 µM (LRRK2_I2020T) was 22% and the inhibition at 0.1 µM (PRKAA1) was -11%. It also gave an inhibition at 0.1 µM (MAP4K4) of 5%, an inhibition at 0.1 µM (SGK2) of -1% and an inhibition at 0.1 µM (CDK9_cyclinK) of -7%. For the same molecule, the inhibition at 0.1 µM (PLK3) was -8%, the inhibition at 0.1 µM (NEK1) was -4% and the inhibition at 0.1 µM (CDK1_cyclinE1) was -2%. It also gave an inhibition at 0.1 µM (CAMK1D) of -4%, an inhibition at 0.1 µM (ITK) of 3% and an inhibition at 0.1 µM (HIPK3) of -10%. The inhibition at 0.1 µM (HIPK2) was -2%, the inhibition at 0.1 µM (AKT3) was 2% and the inhibition at 0.1 µM (DAPK2) was -10%. For the same molecule, the inhibition at 0.1 µM (MKNK1) was -11%, the inhibition at 0.1 µM (RET_Y791F) was 30% and the inhibition at 0.1 µM (MAPK9) was -5%. For the same molecule, the inhibition at 0.1 µM (MAPK12) was -10%, the inhibition at 0.1 µM (MYLK) was 11% and the inhibition at 0.1 µM (RET_S891A) was 84%. For the same molecule, the inhibition at 0.1 µM (TGFbR1) was 4%, the inhibition at 0.1 µM (MATK) was -9% and the inhibition at 0.1 µM (RPS6KA2) was -2%. The inhibition at 0.1 µM (EGFR_G719C) was -31%, the inhibition at 0.1 µM (GSG2) was 20% and the inhibition at 0.1 µM (KIT_V559D_T670I) was -8%. It also gave an inhibition at 0.1 µM (IKBKB) of -3%, an inhibition at 0.1 µM (WNK1) of -2% and an inhibition at 0.1 µM (EIF2AK2) of -1%. It also gave an inhibition at 0.1 µM (MYLK3) of 2%, an inhibition at 0.1 µM (BMX) of -34% and an inhibition at 0.1 µM (GRK4) of 16%. It also gave an inhibition at 0.1 µM (BLK) of -6%.
